Test results: publication PMC6862323, “Substitution of Arginine 120 in Human D-Amino Acid Oxidase Favors FAD-Binding and Nuclear Mistargeting” (Frontiers in Molecular Biosciences, 2019)
Read-outs that look alike come from different tables or passages of the source.

Legend:
[1] = system: U87 glioblastoma cells; experiment: Confocal analysis of cellular distribution of EYFP-hDAAO variants in transiently transfected U87 cells; type: cell-based, human
Procedure: Human U87 glioblastoma cells (ATCC) were cultured in DMEM supplemented with 10% fetal bovine serum, 1 mM sodium pyruvate, 2 mM L-glutamine, 1% non-essential amino acids, 1% penicillin/streptomycin, and 1% amphotericin B (Euroclone), at 37°C in 5% CO2. The cells were transfected either with the pEYFP-hDAAO-C3 construct (for the expression of the wild-type enzyme downstream of the enhanced yellow fluorescent protein, EYFP) (Sacchi et al., [2008], [2011]), the pEYFP-hDAAO(R120L)-C3, or the pEYFP-hDAAO(R120E)-C3 expression vectors. The latter constructs were obtained by mutagenesis using the QuikChange Lightning Site-Directed Mutagenesis Kit (Agilent), and the following primers: 5′-[…]-3′ and 5′-[…]-3′ for the R120E substitution, and 5-[…]-3′ and 5′-[…]-3′ for the R120L substitution.
For transient transfection, 2 ×10^4 cells were seeded into eight-well chamber slides (Sarstedt). At 24 h after seeding, cells were transfected with 2 μg plasmid DNA using a 4:1 ratio of FuGENE transfection reagent (Promega) to DNA. Then, 12.5 μL of transfection mix was added to 500 μL medium per well. Protein expression levels were monitored by using a fluorescence microscope (Olympus IX51) equipped with a FITC filter and by Western blot analysis using an anti-hDAAO antibody (Davids Biotechnologie) (Sacchi et al., [2008], [2011]).
At 24, 48, and 72 h after transfection, cells were washed twice with PBS and fixed with ice-cold 4% p-formaldehyde and 4% sucrose for 10 min at room temperature. After fixation, cells were washed twice with PBS and blocked by incubation in PBS supplemented with 0.2% Triton X-100 and 4% horse serum for 30 min at room temperature. Peroxisomes were stained using rabbit polyclonal anti-PMP70 (peroxisomal membrane protein 70, Sigma), diluted 1:500 in PBS, 0.1% Triton X-100, and 4% horse serum overnight at 4°C; they were then washed twice in PBS and 1% horse serum and incubated for 1 h at room temperature (light protected) with goat anti-rabbit Dylight 550 secondary antibodies (Abcam) diluted 1:400 in PBS, 0.1% Triton X-100, and 1.5% horse serum. Cells were then extensively washed in PBS and nuclei were stained with DRAQ5™ (Thermo Scientific) and diluted 1:500 in PBS for 10 min at room temperature in the dark. Cells were washed three times with PBS and stored in PBS at 4°C until imaging.
Immunostained cells were imaged using an inverted laser scanning confocal microscope (TCS SP5, Leica Microsystems), equipped with a 63.0 ×1.25 NA plan apochromatic oil immersion objective. Confocal image stacks were acquired using the Leica TCS software with a sequential mode to avoid interference between each channel and without saturating any pixel. Cells in 10–15 non-magnified optical fields were analyzed for each condition (i.e., different EYFP-hDAAO expression constructs at different times after transfection). The fluorescence signal corresponding to the overexpressed EYFP-hDAAO variants was monitored by excitation at 514 nm (yellow channel); the peroxisomal and nuclear cellular compartments were imaged by excitation at 546 nm (red channel) and 647 nm (blue channel), respectively.
U87 glioblastoma cells were transiently transfected with a pEYFP-hDAAO-C3 plasmid encoding for EYFP-hDAAO chimeric proteins harboring R, E, or L at position 120 of the flavoenzyme. […] A similar amount of transfected cells (expressing EYFP-hDAAO protein) was obtained for all three constructs (Table 4). The percentage of cells showing a cytosolic, peroxisomal, and nuclear localization of the flavoenzyme was determined by comparing the yellow fluorescence signal of EYFP-hDAAO variants with those of the markers PMP-70 (for peroxisomes) and DRAQ5™ dye (for nuclei, Figure 5). The amount of cytosolic wild-type EYFP-hDAAO decreased with time after transfection (28% of the signal is cytosolic at 72 h vs. 94% at 24 h), as did the amount of nuclear signal (Table 4 and Figure 6). […]

[2] = parameters: method as in Molla et al. (2006) and Caldinelli et al. (2009); settings: 28 mM D-alanine, pH 8.5, 25°C; ref Molla et al. (2006) and Caldinelli et al. (2009); cited from earlier work
[3] = target: T1, R120E hDAAO variant (Homo sapiens, UniProt P14920, R120E); experiment: FAD and ligand binding by quenching of protein fluorescence, R120E hDAAO
T1 construct: His-tag (N); made in house; host or cells: E. coli BL21 (DE3) Star
T1 sequence (P14920 whole entry R120E): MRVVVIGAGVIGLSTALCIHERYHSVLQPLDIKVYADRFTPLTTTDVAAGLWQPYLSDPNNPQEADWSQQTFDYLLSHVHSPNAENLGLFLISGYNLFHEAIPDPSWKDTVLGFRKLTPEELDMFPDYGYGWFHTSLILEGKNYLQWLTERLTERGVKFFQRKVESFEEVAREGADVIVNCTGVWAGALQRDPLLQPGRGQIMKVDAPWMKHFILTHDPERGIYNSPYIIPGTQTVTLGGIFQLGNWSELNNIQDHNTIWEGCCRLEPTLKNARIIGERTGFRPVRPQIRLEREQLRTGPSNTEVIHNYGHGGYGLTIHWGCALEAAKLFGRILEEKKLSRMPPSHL
Procedure: (§1) Protein fluorescence spectra were recorded between 300 and 400 nm, with excitation at 280 nm using a Jasco FP-750 instrument (excitation slit of 10 nm; emission slit of 5 nm) in 10 mM potassium phosphate, pH 8.0, 1% (v/v) glycerol, 5 mM 2-mercaptoethanol, […]

[4] = system: W209R hDAAO; parameters: method as in Cappelletti et al., 2015; settings: compared with wild-type hDAAO; ref Cappelletti et al., 2015; cited from earlier work
[5] = target: wild-type hDAAO; settings: ref Murtas et al. (2017), cited from earlier work
[6] = target: T2, R120L hDAAO variant (Homo sapiens, UniProt P14920, R120L); experiment: FAD and ligand binding by quenching of protein fluorescence, R120L hDAAO
T2 construct: His-tag (N); made in house; host or cells: E. coli BL21 (DE3) Star
T2 sequence (P14920 whole entry R120L): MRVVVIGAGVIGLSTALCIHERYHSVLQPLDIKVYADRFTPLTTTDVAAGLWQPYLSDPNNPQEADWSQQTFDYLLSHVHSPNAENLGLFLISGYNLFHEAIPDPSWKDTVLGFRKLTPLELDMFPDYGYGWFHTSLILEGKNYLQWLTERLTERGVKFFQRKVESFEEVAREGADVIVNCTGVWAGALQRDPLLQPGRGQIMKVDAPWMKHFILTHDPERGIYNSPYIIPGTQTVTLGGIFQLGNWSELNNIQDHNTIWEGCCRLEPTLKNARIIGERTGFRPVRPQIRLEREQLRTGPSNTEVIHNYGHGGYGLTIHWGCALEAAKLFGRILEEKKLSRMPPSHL
Procedure: as §1

[7] = apoprotein, no benzoate, read-out: FAD Kd, free form, first saturation phase
[8] = apoprotein, no benzoate, read-out: FAD Kd, free form, second saturation phase
[9] = in presence of 70 μM benzoate, read-out: FAD Kd, benzoate complex, first saturation phase
[10] = in presence of 70 μM benzoate, read-out: FAD Kd, benzoate complex, second saturation phase

Wild-type: recombinant wild-type human D-amino acid oxidase (His-tagged from E. coli; EYFP-tagged in U87 cells)
hDAAO cellular distribution: A, large cytosolic aggregates detected ([1]; 24 h after transfection): 18.7 % of transfected cells | hDAAO cellular distribution: C, cytosol ([1]; 24 h after transfection): 69.4 % of transfected cells | hDAAO cellular distribution: C/P, mixed, cytosol and peroxisomes ([1]; 24 h after transfection): 13.4 % of transfected cells | hDAAO cellular distribution: N, nucleus ([1]; 24 h after transfection): 14.4 % of transfected cells | hDAAO cellular distribution: P, peroxisomes ([1]; 24 h after transfection): 17.2 % of transfected cells | hDAAO cellular distribution: A, large cytosolic aggregates detected ([1]; 48 h after transfection): 15.4 % of transfected cells | hDAAO cellular distribution: C, cytosol ([1]; 48 h after transfection): 21.2 % of transfected cells | hDAAO cellular distribution: C/P, mixed, cytosol and peroxisomes ([1]; 48 h after transfection): 26.9 % of transfected cells | hDAAO cellular distribution: N, nucleus ([1]; 48 h after transfection): 9.6 % of transfected cells | hDAAO cellular distribution: P, peroxisomes ([1]; 48 h after transfection): 51.9 % of transfected cells | cytosolic signal ([1]; 72 h after transfection): 28% | hDAAO cellular distribution: A, large cytosolic aggregates detected ([1]; 72 h after transfection): 5.6 % of transfected cells | hDAAO cellular distribution: C, cytosol ([1]; 72 h after transfection): 10.4 % of transfected cells | hDAAO cellular distribution: C/P, mixed, cytosol and peroxisomes ([1]; 72 h after transfection): 18.4 % of transfected cells | hDAAO cellular distribution: N, nucleus ([1]; 72 h after transfection): 4.0 % of transfected cells | hDAAO cellular distribution: P, peroxisomes ([1]; 72 h after transfection): 71.2 % of transfected cells | Specific activity [2]: 12.0 U/mg protein

Cc1cc2nc3c(=O)[nH]c(=O)nc-3n(C[C@H](O)[C@H](O)[C@H](O)COP(=O)(O)OP(=O)(O)OC[C@H]3O[C@@H](n4cnc5c(N)ncnc54)[C@H](O)[C@@H]3O)c2cc1C [FAD]
amplitude of fluorescence change, FAD binding, free form, first phase ([3]; apoprotein, no benzoate): 65% | amplitude of fluorescence change, FAD binding, free form, second phase ([3]; apoprotein, no benzoate): 35% | Kd [3, 7]: 50 ± 10 nM | Kd [3, 8]: 32000 ± 3000 nM | amplitude of fluorescence change, FAD binding, benzoate complex, first phase ([3]; in presence of 70 μM benzoate): 65% | amplitude of fluorescence change, FAD binding, benzoate complex, second phase ([3]; in presence of 70 μM benzoate): 35% | Kd [3, 9]: 610 ± 80 nM | Kd [3, 10]: ≥ 30000 nM | tighter FAD-binding (fold) [4]: 4 fold | Kd [5, 7]: 430 ± 20 nM | Kd [5, 8]: ≥ 30000 nM | Kd ([5]; in presence of 70 μM benzoate, monophasic, read-out: FAD Kd, benzoate complex): 480 ± 20 nM | amplitude of fluorescence change, FAD binding, free form, first phase ([6]; apoprotein, no benzoate): 60% | amplitude of fluorescence change, FAD binding, free form, second phase ([6]; apoprotein, no benzoate): 40% | Kd [6, 7]: 50 ± 10 nM | Kd [6, 8]: 23100 ± 1000 nM | amplitude of fluorescence change, FAD binding, benzoate complex, first phase ([6]; in presence of 70 μM benzoate): 75% | amplitude of fluorescence change, FAD binding, benzoate complex, second phase ([6]; in presence of 70 μM benzoate): 25% | Kd [6, 9]: 70 ± 10 nM | Kd [6, 10]: ≥ 20000 nM
